Literature values, collected in publication PMC9516332 (Frontiers in Oncology, 2022).

Assays:
Conditions in all cases: cited from earlier work
[1] = target: panel of 255 wild-type kinases (Homo sapiens, UniProt Q00535)
[2] = target: panel of 255 wild-type kinases (Homo sapiens, UniProt P07947)
[3] = target: T1, panel of 255 wild-type kinases (Homo sapiens, UniProt O43781)
T1 sequence (O43781 1-588): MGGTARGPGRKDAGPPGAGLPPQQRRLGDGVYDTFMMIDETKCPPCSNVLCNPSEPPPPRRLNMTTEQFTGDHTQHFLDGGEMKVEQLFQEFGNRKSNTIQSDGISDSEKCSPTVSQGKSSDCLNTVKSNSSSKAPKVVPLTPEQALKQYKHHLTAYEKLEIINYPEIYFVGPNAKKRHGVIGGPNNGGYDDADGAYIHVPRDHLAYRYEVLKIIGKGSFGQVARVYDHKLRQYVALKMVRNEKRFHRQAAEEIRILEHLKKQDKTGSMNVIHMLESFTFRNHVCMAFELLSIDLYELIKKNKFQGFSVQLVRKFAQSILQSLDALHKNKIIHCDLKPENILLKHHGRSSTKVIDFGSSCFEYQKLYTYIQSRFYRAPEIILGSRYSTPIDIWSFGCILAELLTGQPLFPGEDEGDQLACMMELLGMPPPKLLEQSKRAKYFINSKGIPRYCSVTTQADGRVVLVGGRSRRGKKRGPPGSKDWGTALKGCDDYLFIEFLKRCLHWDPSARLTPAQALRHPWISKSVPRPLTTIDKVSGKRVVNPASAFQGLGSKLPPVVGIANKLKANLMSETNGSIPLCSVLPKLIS

[4] = target: panel of 255 wild-type kinases (Homo sapiens, UniProt P49137)
[5] = target: panel of 255 wild-type kinases (Homo sapiens, UniProt P41240)
[6] = target: T2, panel of 255 wild-type kinases (Homo sapiens, UniProt Q13237)
T2 sequence (Q13237 1-762): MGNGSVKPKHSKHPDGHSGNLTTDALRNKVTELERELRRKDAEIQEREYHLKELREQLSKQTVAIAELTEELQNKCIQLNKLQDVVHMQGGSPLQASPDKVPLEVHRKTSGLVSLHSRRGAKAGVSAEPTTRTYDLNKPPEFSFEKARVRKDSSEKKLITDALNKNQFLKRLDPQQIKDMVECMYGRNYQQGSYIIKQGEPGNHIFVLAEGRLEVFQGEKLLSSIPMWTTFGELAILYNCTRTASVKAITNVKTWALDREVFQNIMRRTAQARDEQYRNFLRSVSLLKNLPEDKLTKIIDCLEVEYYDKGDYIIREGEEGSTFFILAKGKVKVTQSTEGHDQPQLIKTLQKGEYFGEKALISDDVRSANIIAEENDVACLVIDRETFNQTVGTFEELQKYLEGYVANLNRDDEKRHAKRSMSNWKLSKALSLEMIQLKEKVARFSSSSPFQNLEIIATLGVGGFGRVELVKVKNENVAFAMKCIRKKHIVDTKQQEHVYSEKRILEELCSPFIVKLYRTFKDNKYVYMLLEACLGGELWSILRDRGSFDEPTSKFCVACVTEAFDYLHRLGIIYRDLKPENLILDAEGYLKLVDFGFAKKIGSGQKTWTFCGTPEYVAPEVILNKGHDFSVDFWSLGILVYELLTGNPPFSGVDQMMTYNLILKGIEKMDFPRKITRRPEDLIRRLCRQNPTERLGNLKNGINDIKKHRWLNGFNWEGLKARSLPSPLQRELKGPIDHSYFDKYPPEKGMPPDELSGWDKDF

[7] = target: panel of 255 wild-type kinases (Homo sapiens, UniProt O43683)
[8] = target: panel of 255 wild-type kinases (Homo sapiens, UniProt P53350)
[9] = target: T3, panel of 255 wild-type kinases (Homo sapiens, UniProt Q13976)
T3 sequence (Q13976 1-671): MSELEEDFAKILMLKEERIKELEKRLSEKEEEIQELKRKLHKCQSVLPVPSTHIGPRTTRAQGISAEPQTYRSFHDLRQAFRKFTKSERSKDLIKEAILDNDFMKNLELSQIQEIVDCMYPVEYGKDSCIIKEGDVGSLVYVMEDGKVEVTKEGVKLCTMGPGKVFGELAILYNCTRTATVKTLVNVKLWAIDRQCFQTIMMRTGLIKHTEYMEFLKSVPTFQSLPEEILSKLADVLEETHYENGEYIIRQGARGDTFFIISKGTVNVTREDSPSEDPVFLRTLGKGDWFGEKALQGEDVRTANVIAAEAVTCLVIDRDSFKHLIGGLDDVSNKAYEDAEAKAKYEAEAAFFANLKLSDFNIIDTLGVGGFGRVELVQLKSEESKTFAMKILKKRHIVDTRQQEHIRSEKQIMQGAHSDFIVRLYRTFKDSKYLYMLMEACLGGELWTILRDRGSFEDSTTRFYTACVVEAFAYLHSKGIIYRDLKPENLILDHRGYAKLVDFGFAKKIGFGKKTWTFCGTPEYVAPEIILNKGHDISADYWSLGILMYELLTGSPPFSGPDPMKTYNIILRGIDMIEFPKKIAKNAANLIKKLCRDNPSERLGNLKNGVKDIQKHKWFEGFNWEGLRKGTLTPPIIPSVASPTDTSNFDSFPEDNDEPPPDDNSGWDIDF

## COc1cc(N2CCC(N3CCN(C)CC3)CC2)ccc1Nc1ncc(Cl)c(Nc2ccccc2P(C)(C)=O)n1 [brigatinib]
[1]
  %-inhibition CDK5/p25: 40%
[2]
  %-inhibition at 1 µmol/L, YES: 102%
[3]
  %-inhibition at 1 µmol/L, DYRK3: 3.23%
[4]
  %-inhibition at 1 µmol/L, MAPKAPK2: -14%
[5]
  %-inhibition at 1 µmol/L, CSK: 9%
[6]
  %-inhibition CGK2: 37%
[7]
  %-inhibition BUB1/BUB3: 14%
[8]
  %-inhibition at 1 µmol/L, PLK1: 49%
[9]
  %-inhibition at 1 µmol/L, PGK: 60%
